Experimental data taken from ChEMBL document CHEMBL1142978, “Probing the anticancer activity of nucleoside analogues: a QSAR model approach using an internally consistent training set” (J Med Chem, 2007).

Experiment: Cytotoxicity against mouse L1210/0 cells after 48 hrs
Type: cell-based
Conditions: Mus musculus, L1210/0, 48 h

SMILES	IC50 [µM]
Cc1cn([C@@H]2O[C@H](CO)[C@@H](O)[C@@H]2O)c(=O)[nH]c1=O	24.4
O=c1ccn(COCCO)c(=O)[nH]1	> 200
C=C(Cl)c1cn([C@H]2C[C@H](O)[C@@H](CO)O2)c(=O)[nH]c1=O	1.66
Cc1cn(COCCO)c(=O)[nH]c1=O	> 200
O=C1OC(C(O)Cn2cc(C(F)(F)F)c(=O)[nH]c2=O)C(OCc2ccccc2)=C1OCc1ccccc1 (configuration not stated)	50.1
O=C1OC(C(O)Cn2cc(F)c(=O)[nH]c2=O)C(OCc2ccccc2)=C1OCc1ccccc1 (configuration not stated)	140
O=c1[nH]c(=O)n(COCCO)cc1I	> 200
O=c1[nH]c(=O)n([C@H]2C[C@H](O)[C@@H](CO)O2)cc1[N+](=O)[O-]	0.13
Nc1nc2c(nc(I)n2COCCO)c(=O)[nH]1	111
C[C@H](O)C1CC(CCn2nnc3c(N)ncnc32)C1(C)C (some centres not stated)	> 200
Nc1ncnc2c1ncn2CC1CCC(CO)C1 (configuration not stated)	> 200
CC1=C(c2cn([C@H]3C[C@H](O)[C@@H](CO)O3)c(=O)[nH]c2=O)C(=O)c2ccccc2C1=O	68.8
Nc1nc(N)c2ncn([C@H]3CCCC[C@H]3CO)c2n1	> 200
CCOc1ncnc2c1ncn2C[C@@H]1C[C@H](CO)c2ccccc21	> 200
Nc1ncnc2c1ncn2C[C@@H]1C[C@H](O)c2ccccc21	> 200
CC(=O)OC(C)Cn1cnc2c(Cl)nc(I)nc21 (configuration not stated)	13
Nc1ncnc2c1nnn2[C@@H]1C[C@H](CO)[C@@H](CO)[C@H]1CO	> 200
C=Cc1cn([C@H]2C[C@H](O)[C@@H](CO)O2)c(=O)[nH]c1=O	14.2
OC[C@H]1CCC[C@@H]1n1cnc2c(Cl)ncnc21	> 200
O=c1ccn([C@@H]2C[C@H](CO)C[C@@H]2CO)c(=O)[nH]1	> 200
CC(=O)OCCOCn1cnc2c(S)nc(F)nc21	40
O=C1O/C(=C\Cn2ccc(=O)[nH]c2=O)C(Cc2ccccc2)=C1O	> 200
CCCNc1ncnc2c1ncn2C[C@@H]1C[C@H](CO)c2ccccc21	> 200

SMILES	IC50 [µM]
C[C@H](O)C1CC(Cn2nnc3c(N)ncnc32)C1(C)C (some centres not stated)	> 200
COc1ccccc1-c1ncnc2c1ncn2C[C@@H]1C[C@H](O)c2ccccc21	> 200
Nc1ncnc2c1nnn2C1C[C@H](CO)[C@@H](CO)[C@@H]1CO (some centres not stated)	> 200
O=C(CI)NCc1cn([C@H]2C[C@H](O)[C@@H](CO)O2)c(=O)[nH]c1=O	107
[N-]=[N+]=NCc1cn([C@H]2C[C@H](O)[C@@H](CO)O2)c(=O)[nH]c1=O	124
O=c1[nH]c(=O)n(C[C@@H]2C[C@H](O)c3ccccc32)cc1Br	> 200
O=c1ccn([C@@H]2O[C@H](CO)[C@H](F)[C@@H]2O)c(=O)[nH]1	> 200
CC(C)(C)C#Cc1cn([C@@H]2O[C@H](CO)[C@@H](O)[C@@H]2O)c(=O)[nH]c1=O	> 200
CC1(C)C(CO)CC1Cn1nnc2c(Cl)nc(N)nc21 (configuration not stated)	> 200
COC1=C(OC)/C(=C/C(n2cnc3c(N)ncnc32)P(O)(=S)OC)OC1=O (configuration not stated)	> 200
CC(=O)OCCOCn1cnc2c(Cl)nc(I)nc21	8.6
OC[C@@H]1[C@@H]2COC[C@H]2C[C@H]1n1cnc2c(Cl)ncnc21	> 200
N#CSc1cn([C@H]2C[C@H](O)[C@@H](CO)O2)c(=O)[nH]c1=O	78.9
CC1(C)[C@@H](CO)CC[C@@]1(C)Cn1nnc2c(N)ncnc21	> 200
Oc1ncnc2c1ncn2C[C@@H]1C[C@H](O)c2ccccc21	> 200
CC1=C(C)C(=O)C(c2cn([C@H]3C[C@H](O)[C@@H](CO)O3)c(=O)[nH]c2=O)=CC1=O	112
CC1(C)C(CO)CC1Cn1cnc2c(N)nc(N)nc21 (configuration not stated)	> 200
CC(C)Nc1ncnc2c1ncn2C1C[C@@H](CO)[C@@H](CO)C1 (some centres not stated)	> 200
Nc1ncnc2c1ncn2[C@@H]1O[C@H](C=O)C[C@@H]1O	> 200
OC[C@@H]1C[C@H](Cn2cnc3c(NC4CCC4)ncnc32)c2c(-c3ccccc3)nnc(-c3ccccc3)c21	90.8
O=C1C=CN(COCCO)C(=O)C1	> 200
O=c1ccn(C[C@@H]2CCC[C@H]2CO)c(=O)[nH]1	> 200
Nc1ccn([C@@H]2O[C@H](CO)[C@H](F)[C@@H]2O)c(=O)n1	159

SMILES	IC50 [µM]
Nc1ncnc2c1ncn2[C@@H]1O[C@H](/C=C/F)[C@H](O)[C@@H]1O	> 200
CC1(C)[C@@H](CO)CC[C@@]1(C)Cn1ccc(=O)[nH]c1=O	> 200
Nc1ncnc2c1nnn2C[C@H]1CCC[C@H]1CO	> 200
C#Cc1cn([C@H]2C[C@H](O)[C@@H](CO)O2)c(=O)[nH]c1=O	0.36
C[C@H](O)C1CC(Cn2cnc3c(N)ncnc32)C1(C)C (some centres not stated)	> 200
COC1=C(OC)C(=CCn2cnc3c(N)ncnc32)OC1=O	> 200
COc1ncnc2c1ncn2C[C@@H]1C[C@H](O)c2ccccc21	> 200
O=c1[nH]c(=O)n([C@H]2C[C@H](O)[C@@H](CO)O2)cc1/C=C/I	63.9
CC(=O)OC(C)Cn1cnc2c(=S)[nH]c(N)nc21 (configuration not stated)	128
CC1(C)[C@@H](Cn2cnc3c(O)nc(N)nc32)CC[C@@]1(C)CO	> 200
C[C@@]1(CO)O[C@H](c2ccc(N)cc2F)C[C@@H]1O	> 200
Nc1ncnc2c1ncn2C[C@@H]1C[C@H](CO)c2ccccc21	> 200
O=c1ccn(C[C@@H]2C[C@H](CO)c3ccccc32)c(=O)[nH]1	> 200
O=c1[nH]c(=O)n(C2C[C@@H](CO)[C@@H](CO)C2)cc1I (some centres not stated)	> 200
CC(=O)OCCOCn1cnc2c(Cl)ncnc21	163
COC1=C(OC)/C(=C/Cn2cnc3c(Cl)ncnc32)OC1=O	14
O=c1[nH]c(=O)n(COCCO)cc1/C=C/Br	> 200
O=c1[nH]c(=O)n(COCCO)cc1[N+](=O)[O-]	> 200
O=C1O/C(=C\Cn2ccc(=O)[nH]c2=O)C(O)=C1O	> 200
OCCOCn1cnc2c(S)nc(F)nc21	170
O=c1[nH]c(=O)n([C@@H]2CCC[C@H]2CO)cc1I	> 200
O=c1ccn([C@@H]2CCC[C@H]2CO)c(=O)[nH]1	> 200
O=C1OC(=CCn2cnc3c(-n4cccc4)ncnc32)C(OCc2ccccc2)=C1OCc1ccccc1	110

SMILES	IC50 [µM]
O=c1[nH]cnc2c1nnn2C1C[C@H](CO)[C@@H](CO)[C@@H]1CO (some centres not stated)	> 200
Nc1nc(N)c2nnn([C@H]3CCCC[C@H]3CO)c2n1	> 200
CC1(C)[C@@H](Cn2cnc3c(N)nc(N)nc32)CC[C@@]1(C)CO	> 200
CC1=C(C)C(=O)C(c2cn([C@H]3C[C@H](O)[C@@H](CO)O3)c(=O)[nH]c2=O)=C(C)C1=O	174
CC(=O)OC(C)Cn1cnc2c(Cl)nc(F)nc21 (configuration not stated)	37
CC1(C)C(CO)CC1Cn1cnc2c(Cl)nc(N)nc21 (configuration not stated)	> 200
COc1ncnc2c1ncn2C[C@@H]1C[C@H](CO)c2ccccc21	> 200
CC1NC(=O)C(F)=CN1[C@@H]1O[C@H](COP2OCCCO2)[C@@H](O)C1=O (some centres not stated)	0.75
O=C1NCN([C@@H]2O[C@H](COP3OCCC(O)O3)[C@@H](O)C2=O)C=C1F (some centres not stated)	0.84
COC1=C(OCc2ccc([N+](=O)[O-])cc2)C(=O)O/C1=C\Cn1cnc2c(Cl)ncnc21	13.6
O=c1[nH]c(=O)n(C[C@H]2CCC[C@H]2CO)cc1I	> 200
C[C@H](O)C1CC(CCn2cnc3c(N)ncnc32)C1(C)C (some centres not stated)	> 200
CC1(C)C(CO)CC1Cn1nnc2c(N)nc(N)nc21 (configuration not stated)	> 200
COC1=C(OC)/C(=C/CP(=O)(OC)OC)OC1=O	> 200
CC1(C)[C@@H](CO)CC[C@@]1(C)Cn1cnc2c(N)ncnc21	> 200
CC(=O)OCCOCn1cnc2c(=S)[nH]c(N)nc21	3.2
OC[C@@H]1CC(n2cnc3c(NC4CC4)ncnc32)C[C@@H]1CO (some centres not stated)	> 200
CC1(C)[C@@H](CO)CC[C@@]1(C)Cn1cc(I)c(=O)[nH]c1=O	> 200
O=c1[nH]c(=O)n([C@H]2C[C@H](O)[C@@H](CO)O2)cc1CO	9.18
O=Cc1cn([C@H]2C[C@H](O)[C@@H](CO)O2)c(=O)[nH]c1=O	1.07
CC(=O)OCCOCn1cnc2c(Cl)nc(Cl)nc21	39.3
Nc1ncnc2c1ncn2[C@@H]1C[C@@H]2COC[C@H]2[C@H]1CO	> 200
C[C@@]1(CO)O[C@H](c2cc(F)c(N)cc2F)C[C@@H]1O	> 200

SMILES	IC50 [µM]
Nc1ncnc2c1ncn2[C@@H]1CCC[C@H]1CO	> 200
OC[C@@H]1C[C@H](Cn2cnc3c(Cl)ncnc32)c2c(-c3ccccc3)nnc(-c3ccccc3)c21	> 200
OC[C@@H]1C[C@H](Cn2cnc3c(NC4CC4)ncnc32)c2c(-c3ccccc3)nnc(-c3ccccc3)c21	> 200
Nc1ncnc2c1ncn2C1C[C@@H](CO)[C@@H](CO)C1 (some centres not stated)	> 200
Cc1cn(C[C@@H]2C[C@H](CO)c3ccccc32)c(=O)[nH]c1=O	> 200
Nc1nc2c(ncn2[C@@H]2O[C@H](CO)[C@H](F)[C@@H]2O)c(=O)[nH]1	17.5
O[C@H]1C[C@@H](Cn2cnc3c(-c4ccccc4)ncnc32)c2ccccc21	> 200
Nc1nc(Cl)c2ncn([C@H]3CCCC[C@H]3CO)c2n1	> 200
O=C1NCN([C@@H]2O[C@H](COP3OCCC(F)(F)O3)[C@@H](O)C2=O)C=C1F (some centres not stated)	0.01
O=C1OC(C(O)Cn2ccc(=O)[nH]c2=O)C(OCc2ccccc2)=C1OCc1ccccc1 (configuration not stated)	157
CC1(C)[C@@H](Cn2ccc(=O)[nH]c2=O)CC[C@@]1(C)CO	> 200
O=C1O/C(=C\Cn2cc(C(F)(F)F)c(=O)[nH]c2=O)C(O)=C1O	> 200
O=c1[nH]c(=O)n([C@@H]2C[C@H](CO)C[C@@H]2CO)cc1I	> 200
O[C@H]1C[C@@H](Cn2cnc3c(Cl)ncnc32)c2ccccc21	> 200
Nc1ncnc2c1ncn2C1CC(O)C(/C=N/O)O1 (configuration not stated)	17.4
OC[C@H]1C[C@@H](Cn2cnc3c(NC4CC4)ncnc32)c2ccccc21	> 200
CC1(C)[C@@H](Cn2nnc3c(N)nc(N)nc32)CC[C@@]1(C)CO	> 200
COC1=C(OC)/C(=C/C(n2cnc3c(Cl)ncnc32)P(=O)(OC)OC)OC1=O (configuration not stated)	37.7
COc1ccc(C(=O)/C=C/c2cc(O)nc(O)n2)cc1	> 200
O=C1O/C(=C\Cn2cnc3c(Cl)ncnc32)C(OCc2ccccc2)=C1OCc1ccccc1	11.6
